The target in the experiment is CBP (Homo sapiens (Human), UniProt Q92793). Put plainly: HTRF biochemical assay for CBP activity (TR-FRET, bromodomain). It is filed as binding. As to conditions: geometric mean, 10-point 3-fold dilution 33 μM to 1.7 nM, read-out: BROMO IC50 TRF TB CBP (μM gmean). Summed up: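 IC50 derives from a 4-parameter logistic fit of % inhibition, calculated from the 520/490 nm TR-FRET ratio against DMSO and no-enzyme controls. Final compound levels spanned 33 μM to 1.7 nM (10 points, 3-fold), with CBP and peptide ligand in Hepes pH 7.5/GSH/BGG/BSA/Triton buffer, incubated at room temperature for varying times.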
On the technique in general: In TR-FRET formats the signal depends on donor and acceptor labels being close together.

In general, IC50 refers to the midpoint of a concentration-inhibition curve.

Chain of CBP (Q92793 1085-1192): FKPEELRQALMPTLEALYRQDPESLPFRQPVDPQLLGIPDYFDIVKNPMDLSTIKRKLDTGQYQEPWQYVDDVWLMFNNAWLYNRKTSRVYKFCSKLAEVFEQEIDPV

Turning to `COC(=O)N1CCc2ccc3c(nc([C@H]4CC[C@H](C(=O)O)CC4)n3[C@@H](CO)Cc3ccc(F)c(F)c3)c2C1` [Compound 74], the IC50 is 0.001 to 0.01 µM.

`COC(=O)N1CCc2ccc3c(nc(C4CCC(C(=O)O)CC4)n3[C@H](C)C[C@]3(C)CC[C@H](OC)CC3)c2C1` (some centres unmarked) [Compound 175]: the concentration for half-maximal inhibition (IC50) lay in the range of 0.01 to 0.1 µM.

For `COC(=O)N1CCc2ccc3c(nc([C@H]4CC[C@H](C(=O)O)CC4)n3[C@@H](C)Cc3ccccc3)c2C1` [Compound 72], the concentration for half-maximal inhibition (IC50) fell in the range of 0.001 to 0.01 µM.

As for `COC(=O)N1CCc2ccc3c(nc(N4CCC(C(=O)O)CC4)n3[C@@H](C)Cc3cc(F)cc(F)c3)c2C1` [Compound 45], the IC50 fell in the range of 0.001 to 0.01 µM.

In the case of `COC(=O)N1CCc2ccc3c(nc([C@H]4CC[C@H](C(=O)O)CC4)n3[C@@H](C)C[C@H]3CC[C@@H](OC(F)(F)F)CC3)c2C1` [Compound 226], the IC50 lay in the range of 0.01 to 0.1 µM.

Take `COC(=O)N1CCc2ccc3c(nc([C@H]4CC[C@H](C(=O)O)CC4)n3[C@H](C)Cc3ccc(F)c(F)c3)c2C1` [Compound 40]: the IC50 was 0.001 to 0.01 µM.

Take `COC(=O)N1CCc2ccc3c(nc(N4CCN(C(=O)C5COC5)CC4)n3[C@H](C)Cc3ccccc3)c2C1` [Compound 79]: the IC50 was 0.001 to 0.01 µM.

As to `COC(=O)N1CCc2ccc3c(nc(C4CCCC4)n3C[C@H](C(=O)O)c3ccccc3)c2C1` [Compound 55], the IC50 was in the range of 0.001 to 0.01 µM.

For the compound `COC(=O)N1CCc2ccc3c(nc(N4CCC(C(=O)O)CC4)n3[C@@H](C)Cn3cc(Cl)cn3)c2C1` [Compound 73], the IC50 lay within 0.001 to 0.01 µM.

Turning to `COC(=O)N1CCc2ccc3c(nc(N4CCN(S(C)(=O)=O)CC4)n3[C@@H](C)Cn3cc(Cl)cn3)c2C1` [Compound 66], the IC50 is 0.001 to 0.01 µM.

Turning to `COC(=O)N1CCc2c(Cl)cc3c(nc(C4CCCCC4)n3C[C@@H](C(=O)O)c3ccccc3)c2C1` [Compound 56], the IC50 lay in the range of 0.001 to 0.01 µM.

With `COC(=O)N1CCc2c([C@@H]3CCOC3)cc3c(nc([C@H]4CC[C@H](C(=O)O)CC4)n3CCc3ccccc3)c2C1` [Compound 90], the half-inhibitory concentration (IC50) lay in the range of 0.001 to 0.01 µM.

In the case of `COC(=O)N1CCc2ccc3c(nc(C4CCN(C(=O)CO)CC4)n3[C@@H](C)Cc3ccccc3)c2C1` [Compound 106], the IC50 fell in the range of 0.001 to 0.01 µM.

Consider `COC(=O)N1CCc2ccc3c(nc([C@H]4CC[C@H](C(=O)O)CC4)n3CC(F)(F)c3ccccc3)c2C1` [compound 145], for which the IC50 lay within 0.001 to 0.01 µM.

For the compound `COC(=O)N1CCc2ccc3c(nc(C4CCCCC4)n3C[C@@H](C(=O)O)c3ccccc3)c2C1` [Compound 197], the IC50 was in the range of 0.01 to 0.1 µM.

For `COC(=O)N1CCc2ccc3c(nc(N4CCC(C(=O)O)CC4)n3[C@@H](C)C(F)(F)c3ccccc3)c2C1` (single isomer, unassigned) [Compound 24], the IC50 fell in the range of 0.001 to 0.01 µM.

As to `COC(=O)N1CCc2ccc3c(nc([C@H]4CC[C@@H](OC)CC4)n3C[C@H](C(=O)O)c3ccccc3)c2C1` [Compound 250], the IC50 was in the range of 0.01 to 0.1 µM.

For the compound `COC(=O)N1CCc2ccc3c(nc(C4CCCCC4)n3C[C@H](CC(=O)O)c3ccccc3)c2C1` [Compound 167], the IC50 fell in the range of 0.001 to 0.01 µM.

With `COC(=O)N1CCc2ccc3c(nc(C4CCCCC4)n3C[C@@H](CC(=O)O)c3ccc(F)c(F)c3)c2C1` [Compound 21], the IC50 lay in the range of 0.001 to 0.01 µM.

With `COC(=O)N1CCc2ccc3c(nc([C@H]4CC[C@H](C(=O)O)CC4)n3[C@H](C)C(F)(F)c3ccccc3)c2C1` [Compound 125], the concentration for half-maximal inhibition (IC50) is 0.001 to 0.01 µM.

For `COC(=O)N1CCc2ccc3c(nc(-c4ccccn4)n3[C@@H](C)Cc3ccccc3)c2C1` [Compound 159], the 50% inhibitory concentration (IC50) fell in the range of 0.001 to 0.01 µM.

On to `COC(=O)N1CCc2ccc3c(nc(C4CCCCC4)n3CCc3cccc(C(=O)O)c3)c2C1` [Compound 105], for which the IC50 was 0.001 to 0.01 µM.

For the compound `COC(=O)N1CCc2ccc3c(nc([C@H]4CC[C@H](C(=O)O)CC4)n3C[C@@H]3CCc4ccccc4C3)c2C1` [Compound 211], the IC50 lay within 0.01 to 0.1 µM.

On to `COC(=O)N1CCc2ccc3c(nc(C4CCCCC4)n3C[C@@H](C(=O)O)c3cc(F)c(Cl)cc3OC)c2C1` (single isomer, unassigned) [Compound 32], for which the IC50 lay in the range of 0.001 to 0.01 µM.

As to `COC(=O)N1CCc2ccc3c(nc([C@H]4CC[C@H](C(=O)O)CC4)n3[C@H](C)Cc3ccccc3)c2C1` [Compound 312], the IC50 lay in the range of 0.1 to 1 µM.

Consider `COC(=O)N1CCc2ccc3c(nc([C@@H]4CCC[C@@H](C(=O)O)C4)n3Cc3cncc(Cl)n3)c2C1` [Compound 293], for which the IC50 was 0.1 to 1 µM.

`COC(=O)N1CCc2ccc3c(nc([C@H]4CC[C@@H](S(N)(=O)=O)CC4)n3[C@@H](C)Cc3ccccc3)c2C1` [Compound 166]: the IC50 was 0.001 to 0.01 µM.

Take `COC(=O)N1CCc2ccc3c(nc([C@H]4CC[C@H](C(=O)O)CC4)n3[C@H](C)C[C@H]3CCCCO3)c2C1` [Compound 179]: the IC50 is 0.01 to 0.1 µM.

Take `COC(=O)N1CCc2ccc3c(nc([C@@H]4CCC[C@@H](C(=O)O)C4)n3[C@H](C)Cc3ccc(F)c(F)c3)c2C1` [Compound 217]: the IC50 was in the range of 0.01 to 0.1 µM.

Regarding `COC(=O)N1CCc2ccc3c(nc(N4CCN(C(C)=O)CC4)n3[C@@H](C)Cc3cccnc3)c2C1` [Compound 234], the IC50 is 0.01 to 0.1 µM.

In the case of `COC(=O)N1CCc2ccc3c(nc(N4CCC[C@@H](C(=O)O)C4)n3[C@@H](C)Cc3ccccc3)c2C1` [Compound 82], the IC50 fell in the range of 0.001 to 0.01 µM.

In the case of `C[C@H](Cc1ccccc1)n1c2ccc3c(c2nc1[C@H]1CC[C@H](C(=O)O)CC1)CN(C(=O)C1CC1)CC3` [Compound 244], the IC50 lay in the range of 0.01 to 0.1 µM.

For `COC(=O)N1CCc2ccc3c(nc(C4CCCCC4)n3CC[C@@H]3CCCC[C@@H]3C(=O)O)c2C1` [Compound 219], the IC50 lay in the range of 0.01 to 0.1 µM.

`COC(=O)N1CCc2ccc3c(nc(-c4ccc(C(=O)O)cc4)n3[C@@H](C)Cn3cc(Cl)cn3)c2C1` [Compound 132]: the IC50 was 0.001 to 0.01 µM.

For the compound `COC(=O)N1CCc2c([C@H]3CCOC3)cc3c(nc(C4CCC(C(=O)O)CC4)n3[C@@H](C)Cc3ccccc3)c2C1` (some centres unmarked) [Compound 256], the IC50 was in the range of 0.01 to 0.1 µM.

With `COC(=O)N1CCc2ccc3c(nc(C4CCCCC4)n3[C@H](C)C[C@H]3CCCC[C@H]3C(=O)O)c2C1` [Compound 239], the IC50 was in the range of 0.01 to 0.1 µM.

For `COC(=O)N1CCc2ccc3c(nc([C@H]4CC[C@H](C(=O)O)CC4)n3[C@H](C)C[C@H]3CCCOC3)c2C1` [Compound 275], the IC50 was in the range of 0.01 to 0.1 µM.

In the case of `COC(=O)N1CCc2ccc3c(nc([C@H]4CC[C@](C)(C(=O)O)CC4)n3[C@@H](C)Cn3cc(Cl)cn3)c2C1` [Compound 231], the IC50 was in the range of 0.01 to 0.1 µM.

On to `COC(=O)N1CCc2ccc3c(nc([C@H]4CC[C@H](C(=O)O)CC4)n3[C@@H](C)Cc3ccccc3)c2C1` [Compound 192], for which the IC50 was 0.01 to 0.1 µM.

Regarding `COC(=O)N1CCc2ccc3c(nc(C4CCCCC4)n3C[C@H](CC(=O)O)c3ccc(F)c(F)c3)c2C1` [Compound 70], the IC50 lay in the range of 0.001 to 0.01 µM.

Take `COC(=O)N1CCc2ccc3c(nc([C@@H]4CCC[C@@H](C(=O)O)C4)n3Cc3cccc(OC)n3)c2C1` [Compound 272]: the IC50 is 0.01 to 0.1 µM.

For the compound `COC(=O)N1CCc2ccc3c(nc(C4CCCCC4)n3[C@H](C)C[C@@H]3CCCC[C@@H]3C(=O)O)c2C1` [Compound 91], the IC50 is 0.001 to 0.01 µM.

As for `COC(=O)N1CCc2ccc3c(nc([C@H]4CC[C@H](C(=O)O)CC4)n3[C@H](C)CC3CCCCC3)c2C1` [Compound 114], the IC50 was in the range of 0.001 to 0.01 µM.

Consider `COC(=O)N1CCc2ccc3c(nc([C@H]4CC[C@H](C(=O)O)CC4)n3Cc3ccc(OC)c(F)c3)c2C1` [Compound 94], for which the IC50 was 0.001 to 0.01 µM.

For the origin of these results see patent US20250188079A1, “INHIBITING CYCLIC AMP-RESPONSIVE ELEMENT-BINDING PROTEIN (CREB)” (Forma Therapeutics, Inc., priority 2019, published 2025).
